Values of other authors as cited in publication PMC5430874 (Scientific Reports, 2017).

Tested on: rats
Design: method as in PMID 26349500
Details: cited from earlier work

## C[C@@H](NC(=O)CNC(=O)c1cccc(Cl)c1)c1ccccc1 (racemic) [Compound 7c]
  spontaneous locomotion activity: decreased spontaneous locomotion activity
